From publication PMC3972730 (Bioorganic & medicinal chemistry letters, 2010)

Experiments:
[1] = Metabolite identification in human liver microsomes with NADPH; type: in vitro ADME; conditions: human liver microsomes in the presence of NADPH, LC-MS/MS
[2] = Microsomal stability in human liver microsomes; type: in vitro ADME; conditions: parent remaining after 30mins incubation with human liver microsomes

Structure (SMILES)	metabolites formed [1]	HLM % parent [2] [%]
O=C(CCc1cnnn1-c1cccc(Cl)c1)c1ccccc1 [Compound 12e]	two metabolites were formed with masses equal to (parent+2) and (parent+16)	
CC(C)(C)C(=O)CCc1cnnn1-c1ccccc1 [Compound 13h]		4
